How the values were obtained:
Test in all cases: Test on herbicidal activity by foliar application
Assay type in all cases: in vivo
Settings in all cases: foliar spray, 1 kg/ha, plants at 1-2 leaf stage in pots, evaluated 14 days after spraying
Sinapis arvensis = tested on: Sinapis arvensis
Experimental: (§1) Test on Herbicidal Activity by Foliar Application: Herbicidal solutions of each test compounds, which were prepared by dissolving at predetermined concentrations such a wettable powder of the test compound as that described in the above Formulation Example, were sprayed at dosages of 1 kg/ha over foliar parts of Amaranthus retroflexus, Bidens pilosa, Sinapis arvensis, Stellaria media, Solanum nigrum, Abutilon theophrasti, Convolvulus arvensis, Matricaria chamomilla, Galium aparine, Veronica hederaefolia, and Setaria viridis (each test plant is 1-2 leaf stage) which were grown in pots. 14 days latter after spraying, its herbicidal activity was evaluated in accordance with the below-described system. Herbicidal Activity 1: less than 30% inhibition 2: 30% or more-50% inhibition 3: 50% or more-70% inhibition 4: 70% or more-90% inhibition 5: 90% or more inhibition

Bidens pilosa = tested on: Bidens pilosa
Experimental: as §1

Matricaria chamomilla = tested on: Matricaria chamomilla
Experimental: as §1

Veronica hederaefolia = tested on: Veronica hederaefolia
Experimental: as §1

Convolvulus arvensis = tested on: Convolvulus arvensis
Experimental: as §1

Solanum nigrum = tested on: Solanum nigrum
Experimental: as §1

Galium aparine = tested on: Galium aparine
Experimental: as §1

Setaria viridis = tested on: Setaria viridis
Experimental: as §1

Stellaria media = tested on: Stellaria media
Experimental: as §1

Amaranthus retroflexus = tested on: Amaranthus retroflexus
Experimental: as §1

Abutilon theophrasti = tested on: Abutilon theophrasti
Experimental: as §1

SMILES	Herbicidal activity, Sinapis arvensis (Sinapis arvensis)	Herbicidal activity, Bidens pilosa (Bidens pilosa)	Herbicidal activity, Matricaria chamomilla (Matricaria chamomilla)	Herbicidal activity, Veronica hederaefolia (Veronica hederaefolia)	Herbicidal activity, Convolvulus arvensis (Convolvulus arvensis)	Herbicidal activity, Solanum nigrum (Solanum nigrum)	Herbicidal activity, Galium aparine (Galium aparine)	Herbicidal activity, Setaria viridis (Setaria viridis)	Herbicidal activity, Stellaria media (Stellaria media)	Herbicidal activity, Amaranthus retroflexus (Amaranthus retroflexus)	Herbicidal activity, Abutilon theophrasti (Abutilon theophrasti)
COc1ccc(C(=O)NS(=O)(=O)c2ccccc2OC(F)(F)F)nc1 [Compound I-774, N-[(2-Trifluoromethoxyphenyl)sulfonyl]-5-methoxy-2-pyridinecarboxamide]	5 (90% or more inhibition)	5 (90% or more inhibition)	5 (90% or more inhibition)	5 (90% or more inhibition)	4 (70% or more-90% inhibition)	5 (90% or more inhibition)	4 (70% or more-90% inhibition)	5 (90% or more inhibition)	5 (90% or more inhibition)	4 (70% or more-90% inhibition)	5 (90% or more inhibition)
COc1ccc(C(=O)NS(=O)(=O)c2ccccc2OC(F)(F)F)nc1[N+](=O)[O-] [Compound I-778]	5 (90% or more inhibition)	5 (90% or more inhibition)	5 (90% or more inhibition)	2 (30% or more-50% inhibition)	5 (90% or more inhibition)	5 (90% or more inhibition)	4 (70% or more-90% inhibition)	3 (50% or more-70% inhibition)	3 (50% or more-70% inhibition)	4 (70% or more-90% inhibition)	5 (90% or more inhibition)
COc1cc(Cl)nc(C(=O)NS(=O)(=O)c2ccccc2OC(F)(F)F)c1 [Compound I-795, N-[(2-Trifluoromethoxyphenyl)sulfonyl]-6-chloro-4-methoxy-2-pyridinecarboxamide]	5 (90% or more inhibition)	5 (90% or more inhibition)	5 (90% or more inhibition)	5 (90% or more inhibition)	3 (50% or more-70% inhibition)	5 (90% or more inhibition)	5 (90% or more inhibition)	2 (30% or more-50% inhibition)	5 (90% or more inhibition)	4 (70% or more-90% inhibition)	4 (70% or more-90% inhibition)
COc1ccc(C(=O)NS(=O)(=O)c2ccccc2OC(F)(F)F)nc1Cl [Compound I-798, N-[(2-Trifluoromethoxyphenyl)sulfonyl]-6-chloro-5-methoxy-2-pyridinecarboxamide]	5 (90% or more inhibition)	5 (90% or more inhibition)	5 (90% or more inhibition)	5 (90% or more inhibition)	4 (70% or more-90% inhibition)	5 (90% or more inhibition)	5 (90% or more inhibition)	3 (50% or more-70% inhibition)	5 (90% or more inhibition)	5 (90% or more inhibition)	5 (90% or more inhibition)
COc1ccc(C(=O)NS(=O)(=O)c2ccccc2OC(F)(F)F)nc1OC [Compound I-799, N-[(2-Trifluoromethoxyphenyl)sulfonyl]-5,6-dimethoxy-2-pyridinecarboxamide]	5 (90% or more inhibition)	4 (70% or more-90% inhibition)	5 (90% or more inhibition)	4 (70% or more-90% inhibition)	3 (50% or more-70% inhibition)	4 (70% or more-90% inhibition)	4 (70% or more-90% inhibition)	3 (50% or more-70% inhibition)	5 (90% or more inhibition)	3 (50% or more-70% inhibition)	5 (90% or more inhibition)
COc1ccc(C(=O)NS(=O)(=O)c2ccccc2OC(F)(F)F)nc1Br [Compound I-805, N-[[2-Trifluoromethoxyphenyl]sulfonyl]-6-bromo-5-methoxy-2-pyridinecarboxamide]	5 (90% or more inhibition)	5 (90% or more inhibition)	5 (90% or more inhibition)	4 (70% or more-90% inhibition)	5 (90% or more inhibition)	5 (90% or more inhibition)	5 (90% or more inhibition)	4 (70% or more-90% inhibition)	5 (90% or more inhibition)	5 (90% or more inhibition)	5 (90% or more inhibition)
COc1cc(Cl)nc(C(=O)NS(=O)(=O)c2ccccc2S(C)(=O)=O)c1 [Compound I-818, 6-Chloro-4-methoxy-N-[[2-(methylsulfonyl)-phenyl]sulfonyl]-2-pyridinecarboxamide]	5 (90% or more inhibition)	5 (90% or more inhibition)	5 (90% or more inhibition)	4 (70% or more-90% inhibition)	5 (90% or more inhibition)	5 (90% or more inhibition)	5 (90% or more inhibition)	5 (90% or more inhibition)	5 (90% or more inhibition)	5 (90% or more inhibition)	4 (70% or more-90% inhibition)
COc1ccc(C(=O)NS(=O)(=O)c2ccccc2S(C)(=O)=O)nc1Br [Compound I-819, 6-Bromo-5-methoxy-N-[[2-(methylsulfonyl)-phenyl]sulfonyl]-2-pyridinecarboxamide]	5 (90% or more inhibition)	5 (90% or more inhibition)	5 (90% or more inhibition)	3 (50% or more-70% inhibition)	4 (70% or more-90% inhibition)	5 (90% or more inhibition)	4 (70% or more-90% inhibition)	5 (90% or more inhibition)	5 (90% or more inhibition)	5 (90% or more inhibition)	5 (90% or more inhibition)
COc1ccc(C(=O)NS(=O)(=O)c2ccccc2S(=O)(=O)N(C)OC)nc1Br [Compound I-830, 6-Bromo-5-methoxy-N-[[2-(N-methyl-N-methoxyaminosulfonyl]phenyl]sulfonyl]-2-pyridinecarboxamide]	5 (90% or more inhibition)	5 (90% or more inhibition)	5 (90% or more inhibition)	5 (90% or more inhibition)	5 (90% or more inhibition)	5 (90% or more inhibition)	5 (90% or more inhibition)	4 (70% or more-90% inhibition)	5 (90% or more inhibition)	5 (90% or more inhibition)	5 (90% or more inhibition)
COc1cc(Cl)nc(C(=O)NS(=O)(=O)c2ccccc2S(=O)(=O)N(C)OC)c1 [Compound I-838, 6-Chloro-4-methoxy-N-[[2-(N-methyl-N-methoxyamino)sulfonyl]phenylsulfonyl]-2-pyridinecarboxamide]	5 (90% or more inhibition)	5 (90% or more inhibition)	5 (90% or more inhibition)	4 (70% or more-90% inhibition)	5 (90% or more inhibition)	5 (90% or more inhibition)	5 (90% or more inhibition)	5 (90% or more inhibition)	4 (70% or more-90% inhibition)	4 (70% or more-90% inhibition)	5 (90% or more inhibition)

Reference: patent US6610853B1, “N-(phenylsulfonyl)picolinamide derivatives, process for producing the same, and herbicide” (Kureha Kagaku Kogyo K.K., priority 2000, dated 2003)
